From ChEMBL document CHEMBL1129258, “Synthesis and structure-activity relationships of 2-pyridones: a novel series of potent DNA gyrase inhibitors as antibacterial agents” (J Med Chem, 1996) come the findings set out here.

Converted amounts (≈) assume the structure as drawn.

Series [1] has as its target T1, DNA gyrase (Staphylococcus aureus) (UniProt P0A0K8+P20831). Kind of series: In vitro antibacterial activity against gram-positive organism Staphylococcus aureus NCTC-10649M. The series is classed as functional.
The target of series [2] is T2, DNA gyrase (Escherichia coli) (UniProt P0AES6+P0AES4). Briefly: In vitro antibacterial activity against gram-negative organism […] ATCC 13048. The conditions noted are these: Enterobacter aerogenes. It is filed as functional.
For series [3], the target named is T2, DNA gyrase (Escherichia coli). Briefly: In vitro antibacterial activity against gram-negative organism Prov. stuartii CMX-640. It is filed as functional. The conditions noted are these: Providencia stuartii.
The target is the same in series [4]. Briefly: In vitro antibacterial against gram-negative organism Escherichia coli JUHL. It is filed as functional. As to conditions: Escherichia coli K-12.
Series [5] in a line: In vitro antibacterial activity against gram-negative organism Pseudomonas aeruginosa DPHD-2862. The series is classed as functional. As to conditions: Pseudomonas aeruginosa; read-out: MIC.
Series [6] addresses T2, DNA gyrase (Escherichia coli). Briefly: In vitro antibacterial activity against gram-negative organism Klebsiella pneumoniae ATCC 8045. The series is classed as functional.
Series [7] concerns Pseudomonas aeruginosa. Briefly: (§1) In vitro antibacterial activity against gram-negative organism Pseudomonas aeruginosa 5007. It is filed as functional.
Series [8] relates to Streptococcus pyogenes. Briefly: In vitro antibacterial activity against gram-positive organism Streptococcus pyogenes EES61. As to conditions: Streptococcus pyogenes; read-out: MIC. The series is classed as functional.
For series [9], the target named is T1, DNA gyrase (Staphylococcus aureus). Briefly: (§2) In vivo efficacy against Staphylococcus aureus NCTC-10649M after subcutaneous administration. The series is classed as functional, organism-based.
Series [10] has the same target. Briefly: In vitro antibacterial activity against gram-positive organism Staphylococcus aureus ATCC 6538p. The series is classed as functional.
The target in series [11] is T2, DNA gyrase (Escherichia coli). Kind of series: In vitro antibacterial activity against gram-positive organism Enterococcus faecium ATCC 8043. It is filed as functional.
Series [12] deals with Staphylococcus aureus. Briefly: (§3) In vivo efficacy against Staphylococcus aureus NCTC-10649M after oral administration. It is filed as functional.
Series [13] has as its target T1, DNA gyrase (Staphylococcus aureus). Briefly: In vitro antibacterial activity against gram-positive organism Staphylococcus aureus 1775. It is filed as functional.
Series [14] shares this target. The description is as §3. The series is classed as functional, organism-based.
Series [15] deals with T2, DNA gyrase (Escherichia coli). Briefly: In vitro antibacterial activity against gram-positive organism Streptococcus bovis A-5169. The series is classed as functional. The conditions noted are these: Streptococcus equinus.
Series [16] is described as follows: in vivo. The conditions noted are these: rat, po, 5 mg/kg.
Description: Oral bioavailability in rat (dose 5 mg/kg)
For series [17], the system named is Streptococcus pneumoniae. Kind of series: (§4) In vivo efficacy against Strep. administration. It is filed as functional.
The nature of series [18]: in vivo. As to conditions: rat, plasma, po, 5 mg/kg.
Series [19] concerns Streptococcus pneumoniae. Described as §4. The series is classed as functional. This is another data set of the same source.
Series [20] in a line: as §1. The series is classed as functional. The conditions noted are these: Pseudomonas aeruginosa; read-out: MIC.
Series [21] can be described thus: Maximum plasma concentration in rats after an oral dose of 5 mg/kg. As to conditions: rat.
Series [22] concerns Staphylococcus aureus. The description is as §2. It is filed as functional. The conditions noted are these: sc.
Series [23] has as its target T2, DNA gyrase (Escherichia coli). Briefly: In vivo efficacy against Escherichia coli JUHL after oral administration. It is filed as functional, organism-based. As to conditions: Escherichia coli K-12.
The subject of series [24] is Pseudomonas aeruginosa. Kind of series: In vivo efficacy against Pseudomonas aeruginosa 5007 following p.o. administration.
The target of series [25] is T2, DNA gyrase (Escherichia coli). Kind of series: In vivo efficacy against Escherichia coli JUHL by subcutaneous administration. As to conditions: Escherichia coli K-12. It is filed as functional, organism-based.
Series [26] in a line: In vivo efficacy against Pseudomonas aeruginosa 5007 after subcutaneous administration. It is filed as functional. As to conditions: Pseudomonas aeruginosa, sc; read-out: ED50.
Series [27] deals with T2, DNA gyrase (Escherichia coli). The conditions noted are these: Escherichia coli K-12.
Description: Concentration which causes 50% of the gyrase (Escherichia coli H560)-mediated maximal DNA cleavage.
In series [28] the test system is Enterococcus faecium. Kind of series: In vitro antibacterial activity against gram-positive organism Enterococcus faecium ATCC 8043.

T1 sequence (P0A0K8 2-644 limits assumed): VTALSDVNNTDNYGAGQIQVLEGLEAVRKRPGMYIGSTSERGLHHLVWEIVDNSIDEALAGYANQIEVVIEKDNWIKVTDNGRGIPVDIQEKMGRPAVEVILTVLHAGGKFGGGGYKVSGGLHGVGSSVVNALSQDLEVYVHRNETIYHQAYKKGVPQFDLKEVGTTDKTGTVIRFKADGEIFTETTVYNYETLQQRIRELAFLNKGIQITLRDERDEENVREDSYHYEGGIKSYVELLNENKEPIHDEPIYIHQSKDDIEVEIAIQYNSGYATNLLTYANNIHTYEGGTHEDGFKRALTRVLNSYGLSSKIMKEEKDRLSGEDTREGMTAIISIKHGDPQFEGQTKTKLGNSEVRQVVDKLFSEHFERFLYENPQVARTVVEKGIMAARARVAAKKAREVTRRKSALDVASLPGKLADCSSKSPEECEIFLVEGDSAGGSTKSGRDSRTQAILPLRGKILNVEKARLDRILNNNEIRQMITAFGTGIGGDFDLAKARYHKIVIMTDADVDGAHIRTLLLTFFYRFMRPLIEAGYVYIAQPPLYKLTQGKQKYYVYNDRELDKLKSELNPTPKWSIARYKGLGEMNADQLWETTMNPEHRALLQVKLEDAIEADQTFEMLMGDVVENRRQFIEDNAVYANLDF
T1 sequence (P20831 whole entry partner): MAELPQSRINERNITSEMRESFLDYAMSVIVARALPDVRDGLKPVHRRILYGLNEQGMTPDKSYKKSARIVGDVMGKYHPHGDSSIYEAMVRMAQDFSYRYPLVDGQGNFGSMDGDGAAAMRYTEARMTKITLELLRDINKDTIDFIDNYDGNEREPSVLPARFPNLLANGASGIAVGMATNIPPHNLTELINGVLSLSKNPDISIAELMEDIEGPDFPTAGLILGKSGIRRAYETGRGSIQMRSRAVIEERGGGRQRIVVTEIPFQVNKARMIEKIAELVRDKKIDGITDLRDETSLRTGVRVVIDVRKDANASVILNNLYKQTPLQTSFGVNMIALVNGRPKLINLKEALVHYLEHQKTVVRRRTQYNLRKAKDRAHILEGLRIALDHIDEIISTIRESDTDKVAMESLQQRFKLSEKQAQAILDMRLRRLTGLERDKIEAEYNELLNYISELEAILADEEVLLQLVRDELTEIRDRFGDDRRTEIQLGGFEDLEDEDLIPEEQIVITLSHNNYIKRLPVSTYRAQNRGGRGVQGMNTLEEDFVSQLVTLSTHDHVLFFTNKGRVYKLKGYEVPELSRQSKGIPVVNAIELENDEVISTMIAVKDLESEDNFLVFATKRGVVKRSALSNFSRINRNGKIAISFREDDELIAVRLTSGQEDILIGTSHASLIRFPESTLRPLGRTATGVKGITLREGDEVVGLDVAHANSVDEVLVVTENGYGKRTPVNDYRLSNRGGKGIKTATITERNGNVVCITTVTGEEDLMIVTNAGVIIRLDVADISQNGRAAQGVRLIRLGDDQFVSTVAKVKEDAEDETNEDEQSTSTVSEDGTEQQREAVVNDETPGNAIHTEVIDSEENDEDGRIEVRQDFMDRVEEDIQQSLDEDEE

On to `Cc1c(N2CC[C@@]3(C[C@@H]3N)C2)c(F)cn2c(=O)c(C(=O)O)cc(C3CC3)c12`, for which the MIC in [1] turned out to be 0.02 µg/mL (≈ 0.0538 µM); in series [2], 0.05 µg/mL (≈ 0.135 µM); in series [3], 0.39 µg/mL (≈ 1.05 µM); in series [4] it was 0.01 µg/mL (≈ 0.0269 µM); in [5] it was 3.1 µg/mL (≈ 8.35 µM); in series [6], 0.005 µg/mL (≈ 0.0135 µM). In addition, the MIC worked out at 0.39 µg/mL (≈ 1.05 µM) in series [7]; 0.01 µg/mL (≈ 0.0269 µM) in [8]; 0.002 µg/mL (≈ 0.00538 µM) in series [10]; 0.05 µg/mL (≈ 0.135 µM) in series [11]; 0.39 µg/mL (≈ 1.05 µM) in series [13]. Besides, the ED50 (as a rule, the midpoint of the dose-response relation) came out at 1.2 mg/kg in series [9] and 6.3 mg/kg in series [12].

For `Cc1c(N2CCC(O)C2)c(F)cn2c(=O)c(C(=O)O)cc(C3CC3)c12` (stereo not given), the ED50 was 15.2 mg/kg in series [14]; 41.5 mg/kg in series [17]; 7.4 mg/kg in [19]; 11.3 mg/kg in series [22]; over 5 mg/kg in [23]; over 50 mg/kg in series [24]. Besides, the ED50 in series [25] was over 1 mg/kg; in series [26], over 8 mg/kg. The MIC was 0.05 µg/mL (≈ 0.144 µM) in series [15]; 0.005 µg/mL (≈ 0.0144 µM) in [1]; 0.02 µg/mL (≈ 0.0577 µM) in series [2]; 0.2 µg/mL (≈ 0.577 µM) in series [3]; 0.02 µg/mL (≈ 0.0577 µM) in series [4]; 6.2 µg/mL (≈ 17.9 µM) in series [5]. Also, the MIC in series [6] was found to be 0.02 µg/mL (≈ 0.0577 µM); in series [20], 0.2 µg/mL (≈ 0.577 µM); in series [8] it was 0.05 µg/mL (≈ 0.144 µM); in [10], 0.01 µg/mL (≈ 0.0289 µM); in series [11], 0.05 µg/mL (≈ 0.144 µM); in series [13], 0.2 µg/mL (≈ 0.577 µM). The bioavailability (as a rule, the share of a dose that reaches the circulation, judged against a reference dose that is usually intravenous) in series [16] came to 50%. For the same compound, the half-life (as a rule, how long it takes for the measured level to halve) in series [18] was 5.4 h. For the same compound, in [21], the Cmax (commonly the maximum level reached in the sampled fluid or tissue) was 1420 ng/mL.

On to `NC1CCN(c2nc3c(-c4ccc(F)cc4F)cc(C(=O)O)c(=O)n3cc2F)C1` (stereo not given), for which the ED50 is 12 mg/kg in series [14]; 4.4 mg/kg in series [9]; 5.6 mg/kg in series [23]; 42.1 mg/kg in [24]; 1 mg/kg in series [25]; 10.3 mg/kg in series [26]. In addition, the MIC stood at 1.56 µg/mL (≈ 3.86 µM) in [15]; 0.1 µg/mL (≈ 0.247 µM) in series [1]; 0.05 µg/mL (≈ 0.124 µM) in [2]; 1.56 µg/mL (≈ 3.86 µM) in series [3]; 0.02 µg/mL (≈ 0.0495 µM) in series [4]; 100 µg/mL (≈ 247 µM) in series [5]. The MIC in series [6] is 0.02 µg/mL (≈ 0.0495 µM); in [20], 0.39 µg/mL (≈ 0.965 µM); in series [8], 0.39 µg/mL (≈ 0.965 µM); in series [10] it was 0.1 µg/mL (≈ 0.247 µM); in series [28], 0.78 µg/mL (≈ 1.93 µM); in series [13], over 100 µg/mL. Moreover, the CC50 in series [27] turned out to be 0.5 µg/mL (≈ 1.24 µM).
